Reference: patent publication US10274488B2, “Glycan arrays on PTFE-like aluminum coated glass slides and related methods” (Academia Sinica, priority 2008, dated 2019)

Assays:
exoglucanase L3 [1] = assay: Enzymatic hydrolysis in solution with purified exoglucanase L3, MS-TOF assay; format: biochemical, Clostridium thermocellum; details: reaction in solution
Protocol: To verify, the exoglucanases (L3) and endoglucanase (44A) were prepared according methods well known in the literature with minor modifications. First, enzymatic hydrolysis reactions were conducted in solution with the purified enzymes using substrates 8, 9 and 10. At the completion of the reaction, the solution mixtures were transferred to the PTFE-like ACG slide, and prepared by using the same washing procedures before being subjected to MS-TOF assay.
(§1) For each carbohydrate, a specific enzyme was added: (a) is the control run without enzymes, (b) is exoglucanase L3, and (c) is endoglucanase 44A. […]
Cellulase was prepared (5 U/mL in 25 mM pH 5.05 NaOAc buffer solution). Substrate was also dissolved in NaOAc buffer solution (25 mM, pH 5.05) to give 0.5 mM substrate solution. Add 100 uL cellulase solution to 100 uL substrate solution in eppendorf to have a 2.5 U/mL cellulase solution with 0.25 mM substrate. This solution was incubated in 37° C. for 18 hours. Add 100 μL incubated solution onto the slide loaded in FAST® Frame. Put the slide in dry box to remove the water, and then use high vacuum to remove trace water. 100 μL water was used to rinse each well of the FAST® Frame multi-slide plate to solve and remove the salt of the buffer solution. Remove any residual water on the plate by high vacuum and then analyzed the slide by MALDI-TOF Ultra-Flex II.
The genomic DNA of Sulfolobus solfataricus (ATCC 35092) and Clostridium thermocellum (ATCC 27405) were obtained from the ATCC biological resource center. The Sso7d (NCBI accession number: AAK42090) gene fragment was amplified directly from the Sulfolobus solfataricus genome by polymerase chain reaction (PCR) with forward 5′ […] 3′ (SEQ ID NO: 1) and reverse 5′ […] 3′ (SEQ ID NO: 2) primers. The PCR product encoding Sso7d was digested with NdeI and BamHI and subsequently cloned into expression vector pET-28a (Novagen) to generate pET-28-Sso7d. […]

exoglucanase L3 [2] = assay: Enzymatic hydrolysis on the PTFE-like ACG surface with exoglucanase L3, MS-TOF assay; format: biochemical, Clostridium thermocellum; details: substrate immobilized on the PTFE-like ACG surface, 24 hours of incubation
Protocol: as §1
For comparison and as illustrated according to implementations shown in FIG. 23, substrate 8, 9, and 10 were immobilized on the PTFE-like ACG surface and carried out the cellulase hydrolysis on the surface directly, after the same washing procedures, these slides were subjected to MS-TOF assay. […] The endoglucanase 44A can't accept compound 8 or 9 as a substrate. […] From the above results, the cellotetraose substrate 10 was the best carbohydrate to create array on the PTFE-like ACG surface for the experiments conducted. By using this array, the activity and specificity of unknown cellulase may be examined.
Cellulase was prepared (5 U/mL in 25 mM pH 5.05 NaOAc buffer solution). Substrate was also dissolved in NaOAc buffer solution (25 mM, pH 5.05) to give 0.5 mM substrate solution. Add 50 μL cellulase solution to 50 μL substrate solution onto the glass slide which was loaded in FAST® Frame multi-slide plate to have a 2.5 U/mL cellulase solution with 0.25 mM substrate. […] Put the slide in dry box to remove the water, and then use high vacuum to remove trace water. 100 uL water was used to rinse each well of the FAST® Frame multi-slide plate to solve and remove the salt of the buffer solution. Remove any residual water on the plate by high vacuum and then analyzed the slide by MALDI-TOF Ultra-Flex II.
The genomic DNA of Sulfolobus solfataricus (ATCC 35092) and Clostridium thermocellum (ATCC 27405) were obtained from the ATCC biological resource center. The Sso7d (NCBI accession number: AAK42090) gene fragment was amplified directly from the Sulfolobus solfataricus genome by polymerase chain reaction (PCR) with forward 5′ […] 3′ (SEQ ID NO: 1) and reverse 5′ […] 3′ (SEQ ID NO: 2) primers. […]

| Compound | Cleavage of the substrate by exoglucanase L3 (in words) (exoglucanase L3 [1]) | Cleavage of the substrate by exoglucanase L3 (in words) (exoglucanase L3 [2]) |
| --- | --- | --- |
| O=C(NCCCCCO[C@@H]1O[C@H](CO)[C@@H](O[C@@H]2O[C@H](CO)[C@@H](O[C@@H]3O[C@H](CO)[C@@H](O)[C@H](O)[C@H]3O)[C@H](O)[C@H]2O)[C@H](O)[C@H]1O)OCCCC(F)(F)C(F)(F)C(F)(F)C(F)(F)C(F)(F)C(F)(F)C(F)(F)C(F)(F)C(F)(F)F [Compound 9, [(4,4,5,5,6,6,7,7,8,8,9,9,10,10,11,11,12,12,12-nonadecafluorododecoxycarbonyl-amino)pentyl] ß-D-glucopyranosyl-(1→4)-ß-D-glucopyranosyl-(1→4)- -ß-D-glucopyranoside] | quickly | cleaved the cellobiose quickly |
| O=C(NCCCCCO[C@@H]1O[C@H](CO)[C@@H](O[C@@H]2O[C@H](CO)[C@@H](O)[C@H](O)[C@H]2O)[C@H](O)[C@H]1O)OCCCC(F)(F)C(F)(F)C(F)(F)C(F)(F)C(F)(F)C(F)(F)C(F)(F)C(F)(F)F [Compound 8, [(4,4,5,5,6,6,7,7,8,8,9,9,10,10,11,11,12,12,12-nonadecafluorododecoxycarbonyl-amino)pentyl] ß-D-cellobioside] | slowly | only cleaved a fraction |
